{
  "source": "patent US7241731B2",
  "about": "“Oligopeptides for promoting hair growth” (Sumitomo Electric Industries, Ltd., priority 2000, dated 2007)",
  "molecules": {"B1": {"name": "Native mammalian epimorphin: protein of 277 to 289 amino acids promoting the morphogenesis of epithelial tissue (protein, UniProt P32856 1-288, looked up)", "Syntaxin-2": "MRDRLPDLTACRKNDDGDTVVVVEKDHFMDDFFHQVEEIRNSIDKITQYVEEVKKNHSIILSAPNPEGKIKEELEDLNKEIKKTANKIRAKLKAIEQSFDQDESGNRTSVDLRIRRTQHSVLSRKFVEAMAEYNEAQTLFRERSKGRIQRQLEITGRTTTDDELEEMLESGKPSIFTSDIISDSQITRQALNEIESRHKDIMKLETSIRELHEMFMDMAMFVETQGEMINNIERNVMNATDYVEHAKEETKKAIKYQSKARRKKWIIIAVSVVLVAIIALIIGLSVGK"}},
  "key": {"[1]": {"tested_on": "Human keratinocytes (NHEK cell), IL-8 secretion", "assay": "IL-8 secretion by NHEK cells (ELISA)", "format": "cell-based", "conditions": "for secretion amount of IL-8: FIG. 8, 50 μg/ml, deletion variants of b7; for secretion amount of IL-8 / IL-8 inducing activity: 16–20 hours; for IL-8 inducing activity: Table IV, 50 μg/ml, symbols not defined", "description": "Human keratinocytes (NHEK cell, Clonetics, available from Sanko Jyun-yaku, Ltd.) were cultivated in a medium for proliferation (Clontics) comprising 30 μg/ml BPE, 0.1 ng/ml human EGF, 5 μg/ml insulin, 0.5 μg/ml hydrocortisone, 50 μg/ml gentamycin, and 50 ng/ml amphoterin. These cells were re-suspended at the concentration of 1×10^4 cells/ml in a medium wherein EGF, insulin, and hydrocortisone were removed from the above medium for proliferation, and then 100 μl of the suspension was placed on each well of a 96-well plate. At the same time of the plating of the cells, 5 μl of 1 mg/ml oligopeptide was added to the suspension so as to be final concentration of 50 μg/ml. After cultivation for 16–20 hours, the amount of IL-8 in the culture supernatants was measured by ELISA kit (ENDOGEN)."}, "[2]": {"tested_on": "antigen of about 220 kDa present in new follicle (antigen of mAb27)", "assay": "Skin tissues of maxilla of ICR mice incubated with test oligopeptide, Western blot with mAb 27", "format": "cell-based", "conditions": "for hair growth promoting activity (mAb 27 band stronger than control): Example 10, FIG. 4 and 5, BMH-treated oligopeptides of Example 9, 20 μCM", "description": "The skin tissues of maxilla of ICR mice (pregnancy 12 days) were collected by stereoscopic microscope, and left and right sides were respectively recovered from 5 mice. 5 pieces of each of the thus collected left (for control) and right (for test oligopeptides) skins from 5 mice were respectively placed on 1 nuclepore membrane (pore diameter 8 μm; diameter 13 mm), and were set in such a way that the outside upturns by observing the samples with stereoscopic microscope. 500 μl of Dulbecco's MEM/Ham F12 medium containing 1% BSA was added to 2 wells of 24 well dish. The test oligopeptide in a solvent (PBS) was added in a final concentration of 20 μCM to one well, and solvent (PBS) was added in the same amount to the other well as a control. The oligopeptides synthesized in Example 9 were used as the test oligopeptides.\n(§1) Each membrane having skin tissues thereon was launched on the solution in the above wells, and was incubated at 37° C. for 6 days. 5 pieces of tissue were recovered from the membrane into 100 μl of SDS sample buffer (SDS 0.02 g/ml, glycerol 0.2 g/ml, pH6.8), and dissolved by ultrasonic treatment. The control membrane was also treated similarly. The solution obtained by such a treatment was subjected to electrophoresis (35 mA, 1.5 hour) in SDS-PAGE (acrylamide 4–20%), and transferred to PVDF membrane, and incubated in Tris buffer containing 5% skim milk (TBST) for 1 hour. The membrane was reacted with mAb 27 (10 μg/ml in TBST) obtained in Example 2 for 1 hour, and was washed well with TBS. Then, peroxidase labeled anti-rat IgG (Amersham) (1/1000 diluted in TBST) was reacted as the second antibody, and the membrane was washed well with TBS. The intensity of the reaction of mAb 27 was examined using ECL kit (Amersham).\nThe skin tissues of maxilla of ICR mice (pregnancy 12 days) were collected by stereoscopic microscope, and left and right sides were respectively recovered from 5 mice. 5 pieces of each of the thus collected left (for control) and right (for test oligopeptides) skins from 5 mice were respectively placed on 1 nuclepore membrane (pore diameter 8 μm; diameter 13 mm), and were set in such a way that the outside upturns by observing the samples with stereoscopic microscope. 500 μl of Dalbecco's MEM/Ham F12 medium containing 1% BSA was added to 2 wells of 24 well dish. The test oligopeptide in a solvent (PBS) was added in a final concentration of 20 μM to one well, and solvent (PBS) was added in the same amount to the other well as a control. The unmodified and modified oligopeptides synthesized in the above (1) were used as the test oligopeptides.\nas §1, with “Example 6” for “Example 2”\nThe skin tissues of maxilla of ICR mice (pregnancy 12 days) were collected by stereoscopic microscope, and left and right sides were respectively recovered from 5 mice. […]"}, "[3]": {"tested_on": "transition from telogen to anagen (hair cycle)", "assay": "Evaluation of hair growth promoting activity by in vivo method (shaved telogen mice, hair growth score)", "parameters": "species or system C57BL/6 mice", "conditions": "for hair restoration compared with the control group (hair growth score): topical application until 38th day, FIGS. 6 and 7; for Hair growth Activity: Table IV, symbols not defined", "description": "C3H and C57BL/6 mice are known to have sustained telogen for about 50 days from the 45th day after the birth to around the 95th day. Their hair cycle is easily judged based on the skin color changes, i.e., from pink in telogen to gray or black in anagen. A test for evaluating whether or not the administration the oligopeptides of the present invention promotes the transition from telogen to anagen was carried out using the mice. Seven weeks old (48 to 50-day old, female) C57BL/6 mice were purchased and hair of the back (about 3×2.5 cm^2) was carefully shaved with electric clippers for animals so as not to injure the skin, and the hair cycle was confirmed to be in telogen from the skin color. The oligopeptide solution prepared above was applied to five mice in each group, once a day and 5 days in a week in the amount of 0.2 ml until 38th day from the start of the test. The application was carried out by using a syringe without needle. Dipeptide (Ile-Lys) and tripeptide (Glu-Ile-Lys) of which N-terminal is biotinylated were mixed, and then added with the cross-linking agent to prepare a control solution.\nPlural persons (two persons) observed the mice twice a week by naked eye for evaluation, and gave a 6-graded score depending on a ratio of hair restoration area based on the hair shaved area. At the same time, photographs were taken. Hair growth scores were calculated as follows. At first, the following score was given depending on a ratio of areas where the skin color changes to gray or black in the hair shaved area; 0–20%: 1, 20–40%: 2, 40–60%: 3, 60–80%:4, 80–100%: 5. The sum of the above scores in each group was determined as the hair growth score. The maximum value of the hair growth score of each group was 50 for each of the persons for judgment, and the maximum value of hair growth score was 100 because the judgment was made by two persons."}, "[4]": {"conditions": "cited from earlier work"}, "[5]": {"conditions": "Example 11, position of Cys altered, synthesized as in Example 9"}},
  "note": "Bridge positions count the residues as written; N and C are the ends. Primed or numbered codes have the meaning given here. Ends that are not written are not given here. I, II: the chains in the order shown. * marks the point of attachment. Biotin = O=C1N[C@H]2[C@H](CS[C@H]2CCCCC(=O)*)N1; BMH′ = not defined here",
  "data": [
    {"molecule": "EQSCDQDE (Biotin-EQSCDQDE) [b7ΔN2]", "values": [
      {"measurement": "secretion amount of IL-8", "setting": "[1]", "value": "slightly decreased"}
    ]},
    {"molecule": "IEQSCDQDE (Biotin-IEQSCDQDE) [b7ΔN1]", "values": [
      {"measurement": "secretion amount of IL-8", "setting": "[1]", "value": "slightly decreased"}
    ]},
    {"molecule": "Lys-Ser-Ile-Glu-Gln-Ser-Cys-Asp-Gln-Asp-Glu (Biotin-KSIEQSCDQDE) [bk7]", "values": [
      {"measurement": "IL-8 inducing activity compared with oligopeptide b7", "setting": "[1]; FIG. 9, Examples 17 and 18", "value": "almost the same IL-8 inducing activity as that of oligopeptide b7"}
    ]},
    {"molecule": "QSCDQDE (Biotin-QSCDQDE) [b7ΔN3]", "values": [
      {"measurement": "secretion amount of IL-8", "setting": "[1]", "value": "slightly decreased"}
    ]},
    {"molecule": "SICEQSD [SEQ ID NO:6]", "values": [
      {"measurement": "hair growth promoting activity", "setting": "[2]; [5]", "value": "showed a hair growth promoting activity"}
    ]},
    {"molecule": "SICEQSDQDE [oligopeptide (C)]", "values": [
      {"measurement": "hair growth promoting activity (mAb 27 band stronger than control)", "setting": "[2]; 6 days", "value": "have a hair growth promoting activity"}
    ]},
    {"molecule": "SIECQSD [SEQ ID NO:5]", "values": [
      {"measurement": "hair growth promoting activity", "setting": "[2]; [5]", "value": "showed a hair growth promoting activity"}
    ]},
    {"molecule": "SIECQSDQ [oligopeptide (D)]", "values": [
      {"measurement": "hair growth promoting activity (mAb 27 band stronger than control)", "setting": "[2]; 6 days", "value": "had a hair growth promoting activity"}
    ]},
    {"molecule": "SIECQSDQDE [oligopeptide (B)]", "values": [
      {"measurement": "hair growth promoting activity (mAb 27 band stronger than control)", "setting": "[2]; 6 days", "value": "have a hair growth promoting activity"}
    ]},
    {"molecule": "SIEQCSD [SEQ ID NO:4]", "values": [
      {"measurement": "hair growth promoting activity", "setting": "[2]; [5]", "value": "showed a hair growth promoting activity"}
    ]},
    {"molecule": "SIEQCSDQDE [oligopeptide (A)]", "values": [
      {"measurement": "hair growth promoting activity (mAb 27 band stronger than control)", "setting": "[2]; 6 days", "value": "have a hair growth promoting activity"}
    ]},
    {"molecule": "SIEQS (Biotin-SIEQS) [b7ΔC5]", "values": [
      {"measurement": "secretion amount of IL-8", "setting": "[1]", "value": "significantly decreased"}
    ]},
    {"molecule": "SIEQSC (Biotin-SIEQSC; also: Cys sulfhydryl blocked (group not given here)) [b7ΔC4]", "values": [
      {"measurement": "secretion amount of IL-8", "setting": "[1]", "value": "maintained"}
    ]},
    {"molecule": "SIEQSCD (Biotin-SIEQSCD; also: Cys sulfhydryl blocked (group not given here)) [b7ΔC3]", "values": [
      {"measurement": "secretion amount of IL-8", "setting": "[1]", "value": "maintained"}
    ]},
    {"molecule": "SIEQSCDQ (Biotin-SIEQSCDQ; also: Cys sulfhydryl blocked (group not given here)) [b7ΔC2]", "values": [
      {"measurement": "secretion amount of IL-8", "setting": "[1]", "value": "maintained"}
    ]},
    {"molecule": "SIEQSCDQD (Biotin-SIEQSCDQD; also: sulfhydryl blocked) [b7ΔC1]", "values": [
      {"measurement": "secretion amount of IL-8", "setting": "[1]", "value": "maintained"}
    ]},
    {"molecule": "SIEQSCDQDE [SEQ ID NO:84]", "values": [
      {"measurement": "hair growth promoting activity", "setting": "[3]; conclusion of Example 15", "value": "has hair growth promoting activity"}
    ]},
    {"molecule": "b7: modified oligopeptide having biotin at the N-terminus of Ser-Ile-Glu-Gln-Ser-Cys-Asp-Gln-Asp-Glu (SEQ ID NO:84) (Biotin-SIEQSCDQDE)", "values": [
      {"measurement": "hair restoration compared with the control group (hair growth score)", "setting": "[3]; C57BL/6 mice", "value": "hair restoration was promoted until about 30 days from the start of the test"},
      {"measurement": "Hair growth Activity", "setting": "[3]", "value": "◯"},
      {"measurement": "IL-8 inducing activity", "setting": "[1]", "value": "⊚"}
    ]},
    {"molecule": "heterodimer oligopeptide: heterodimer made with BMH from two different oligopeptides; b464 names SEQ ID NO:87 and SEQ ID NO:4, b490 oligopeptides (A) and (B) (chain 1 SIEQSCD; chain 2 SIEQCSD; linker I:6-II:5 via BMH′ (inferred))", "values": [
      {"measurement": "hair growth promoting activity (mAb 27 band stronger than control)", "setting": "[2]; 6 days", "value": "had also a hair growth promoting activity"}
    ]},
    {"molecule": "ss7: S-S bridged oligopeptide prepared by reacting the oligopeptide (SEQ ID NO:84 series) with BMH; elsewhere called S-S bridged and biotinylated (SIEQSCDQDE; also: BMH cross-linked dimer, Cys attachment not placed, biotinylated, site not given here)", "values": [
      {"measurement": "transition to anagen earlier than the control group", "setting": "[3]; C57BL/6 mice, 0.2 ml of oligopeptide solution (0.15 mg/ml, 50% ethanol/PBS) once a day, 5 days in a week", "value": "≥ 7", "unit": "days"},
      {"measurement": "hair restoration compared with the control group (hair growth score)", "setting": "[3]; C57BL/6 mice", "value": "hair restoration was promoted at any time until the hair grew and restored almost completely"},
      {"measurement": "Hair growth Activity", "setting": "[3]", "value": "⊚"},
      {"measurement": "hair growth promoting activity", "setting": "[2]; Example 16", "value": "has hair growth promoting activity"},
      {"measurement": "band of mAb27 antigen versus control", "setting": "[2]; Example 16, FIG. 13, 20 μM, 6 days", "value": "a stronger band was detected"},
      {"measurement": "IL-8 inducing activity", "setting": "[1]", "value": "⊚"}
    ]},
    {"molecule": "B1", "values": [
      {"measurement": "solubility in aqueous media such as saline", "setting": "[4]", "value": "almost insoluble"}
    ]}
  ]
}
